Among the test systems are NCI-H460 lung; ACHN renal; SNB-19 CNS; MALME-3M melanoma; SK-MEL-2 melanoma; OVCAR-4 ovarian; IGROV1 ovarian; SNB-75 CNS; DU-145 prostate; HOP-92 NSCLC.
What all share (experiment): inhibition of tumour cell growth, NCI panel, 48 h

This note sets out measurements from PubChem BioAssay (NCI).

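96-well plates; 48 h exposure; 5 concentrations. Endpoints by linear interpolation between flanking doses. Not reached: highest tested concentration assigned. GI50 is the concentration that inhibits growth by half. TGI denotes the concentration required for complete inhibition of growth.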

Regarding `O=C(Oc1cccc2cccnc12)c1cc2c(cc1Cl)SC(N(c1ccc(F)cc1)S(=O)(=O)c1ccc(Br)s1)=NS2(=O)=O`, the GI50 is 29100 nM in the test with NCI-H460 lung; 33800 nM in the test with ACHN renal; 28800 nM in the test with SNB-19 CNS; 18800 nM in the test with MALME-3M melanoma; 34.3 µM in the test with SK-MEL-2 melanoma; 17800 nM in the test on OVCAR-4 ovarian. In addition, the GI50 with IGROV1 ovarian is 60300 nM; with SNB-75 CNS, 26500 nM; in the test with DU-145 prostate it was 27300 nM; with HOP-92 NSCLC it was 22.5 µM. Besides, the TGI in the test with NCI-H460 lung was above 100 µM; in the test on ACHN renal, above 100 µM; in the test on SNB-19 CNS, above 100 µM; in the test on MALME-3M melanoma, 49.6 µM; in the test with SK-MEL-2 melanoma, above 100 µM; with OVCAR-4 ovarian, 46.8 µM. The TGI in the test with IGROV1 ovarian is above 100 µM; in the test on SNB-75 CNS it was 93.5 µM; in the test with DU-145 prostate it was above 100 µM; in the test on HOP-92 NSCLC, 48.5 µM.
Take `COc1ccc(/C=C/C(=O)c2cc(OC)c(OC)c(OC)c2)cc1OCC(=O)Nc1nc2ccc(OC(F)(F)F)cc2s1`: the GI50 in the test on NCI-H460 lung is 2430 nM; with ACHN renal, 1620 nM; in the test on SNB-19 CNS, 1580 nM; with MALME-3M melanoma, 2690 nM; in the test on SK-MEL-2 melanoma, 4.97 µM; with OVCAR-4 ovarian, 2070 nM. In addition, the GI50 was 2540 nM with IGROV1 ovarian, 340 nM with SNB-75 CNS, 1560 nM in the test with DU-145 prostate and 2.14 µM with HOP-92 NSCLC. Also, the TGI amounted to 6.25 µM in the test with NCI-H460 lung; 3.85 µM with ACHN renal; 51.8 µM in the test on SNB-19 CNS; 13.5 µM in the test on MALME-3M melanoma; 27.1 µM in the test with SK-MEL-2 melanoma; 5.14 µM with OVCAR-4 ovarian. For the same compound, the TGI in the test with IGROV1 ovarian is 5.56 µM; in the test on SNB-75 CNS, 2.3 µM; with DU-145 prostate, 4.55 µM; in the test with HOP-92 NSCLC, 7.32 µM.
Regarding `CC(=O)Nc1ccc2c(c1)C(c1ccccc1Cl)=Nc1c(n[nH]c1C)N2`, the GI50 in the test on NCI-H460 lung was 1850 nM; in the test with ACHN renal it was 6190 nM; in the test on SNB-19 CNS, 6360 nM; with MALME-3M melanoma, above 25000 nM; in the test on SK-MEL-2 melanoma it was above 25 µM; with OVCAR-4 ovarian, above 15900 nM. In addition, the GI50 with IGROV1 ovarian is 5660 nM; in the test on SNB-75 CNS, 732 nM; with DU-145 prostate, above 22800 nM; with HOP-92 NSCLC, 1.41 µM. Moreover, the TGI in the test on NCI-H460 lung, with ACHN renal, with SNB-19 CNS, in the test on MALME-3M melanoma, in the test with SK-MEL-2 melanoma and in the test with OVCAR-4 ovarian was above 25 µM each time. The TGI was above 24 µM in the test on IGROV1 ovarian, 6.24 µM with SNB-75 CNS, above 25 µM in the test on DU-145 prostate and 16.4 µM in the test with HOP-92 NSCLC.
Regarding `O=C(Cc1ccc(/C=C/C(=O)c2ncc[nH]2)cc1)Nc1ccc(F)cc1`, the GI50 is 1720 nM in the test with NCI-H460 lung; 4820 nM in the test with ACHN renal; 1580 nM in the test with SNB-19 CNS; 7860 nM in the test with MALME-3M melanoma; 7.47 µM with SK-MEL-2 melanoma; 9140 nM with OVCAR-4 ovarian. The GI50 in the test with IGROV1 ovarian was 2660 nM; in the test on SNB-75 CNS it was 11100 nM; with DU-145 prostate it was 1190 nM; with HOP-92 NSCLC, 9.11 µM. For the same compound, the TGI was 14.6 µM in the test on NCI-H460 lung; 9.62 µM in the test on ACHN renal; 14.9 µM with SNB-19 CNS; 22.1 µM in the test on MALME-3M melanoma; 19 µM with SK-MEL-2 melanoma; above 33.3 µM with OVCAR-4 ovarian. Further, the TGI in the test with IGROV1 ovarian was 13.9 µM; in the test on SNB-75 CNS, above 33.3 µM; with DU-145 prostate, 4.58 µM; in the test on HOP-92 NSCLC, 30.5 µM.
With `CCOC(=O)c1cc(C(=O)c2cc(OC)c(OC)c(OC)c2)n2ncccc12`, the GI50 with NCI-H460 lung is 335 nM; in the test on ACHN renal, 1340 nM; with SNB-19 CNS, 705 nM; in the test on SK-MEL-2 melanoma, 0.466 µM; in the test on OVCAR-4 ovarian, 805 nM; in the test on IGROV1 ovarian, 3470 nM. Also, the GI50 in the test on SNB-75 CNS is 175 nM; in the test with DU-145 prostate it was 370 nM; in the test on HOP-92 NSCLC it was 48.5 µM. The TGI with NCI-H460 lung, in the test with ACHN renal, in the test with SNB-19 CNS, in the test on MALME-3M melanoma, in the test on SK-MEL-2 melanoma and in the test with OVCAR-4 ovarian was above 100 µM throughout. Moreover, the TGI was above 100 µM in the test with IGROV1 ovarian, 42.4 µM with SNB-75 CNS, above 100 µM in the test with DU-145 prostate and above 100 µM with HOP-92 NSCLC.
Turning to `O=c1c2c(=NCCN3CCCC3)cc3c(=O)n(CCCN4CCOCC4)c(=O)c4c(-c5ccc(CN6CCCC6)cc5)cc(c(O)n1CCCN1CCOCC1)c2c4-3`, the GI50 in the test on NCI-H460 lung is 24.7 nM; in the test on ACHN renal it was 25.7 nM; with SNB-19 CNS it was 54 nM; in the test on MALME-3M melanoma it was 105 nM; in the test with SK-MEL-2 melanoma, 0.112 µM; with OVCAR-4 ovarian, 49.1 nM. Further, the GI50 is 39.9 nM in the test on IGROV1 ovarian, 58.2 nM with SNB-75 CNS, 103 nM with DU-145 prostate and 0.0178 µM in the test with HOP-92 NSCLC. In addition, the TGI in the test on NCI-H460 lung came to 0.245 µM; in the test on ACHN renal, 0.783 µM; with SNB-19 CNS, 1.2 µM; with MALME-3M melanoma, 0.388 µM; in the test with SK-MEL-2 melanoma, 0.382 µM; in the test on OVCAR-4 ovarian, 0.23 µM. Besides, the TGI was 1.47 µM with IGROV1 ovarian, 0.228 µM with SNB-75 CNS, 1.23 µM with DU-145 prostate and 0.0735 µM with HOP-92 NSCLC.
With `CCOC(=O)c1ccc(NC(=O)Nc2nncs2)cc1`, the GI50 with NCI-H460 lung is 379 nM; with ACHN renal, 1240 nM; with SNB-19 CNS, 456 nM; with MALME-3M melanoma it was 132 nM; in the test on SK-MEL-2 melanoma, 0.734 µM; in the test with OVCAR-4 ovarian, 916 nM. The results for the GI50 with IGROV1 ovarian, with SNB-75 CNS and in the test with DU-145 prostate were 374 nM, 83.2 nM and 309 nM, respectively. Further, the TGI was 14.1 µM with NCI-H460 lung; 23.9 µM with ACHN renal; above 61.1 µM in the test on SNB-19 CNS; 36.1 µM in the test with MALME-3M melanoma; 24 µM in the test on SK-MEL-2 melanoma; 21.5 µM with OVCAR-4 ovarian. For the same compound, the TGI is 14.8 µM in the test with IGROV1 ovarian, 19.3 µM with SNB-75 CNS, 4.11 µM in the test with DU-145 prostate and 0.947 µM in the test on HOP-92 NSCLC.
Regarding `CCOC(=O)C1Cc2c(cc3c4c(cccc24)N(C(C)=O)C3)N(C)C1` (stereo not drawn), the TGI with NCI-H460 lung, in the test with ACHN renal, in the test on SNB-19 CNS, in the test on MALME-3M melanoma, in the test with SK-MEL-2 melanoma and in the test on OVCAR-4 ovarian was above 100 µM in each case. Further, the TGI with IGROV1 ovarian is above 100 µM; in the test on SNB-75 CNS it was above 100 µM; in the test on DU-145 prostate it was above 100 µM; with HOP-92 NSCLC, 99.7 µM.
